Ends that are not written are not given here. * marks the point of attachment. Palmitoyl = CCCCCCCCCCCCCCCC(=O)*
Assays:
ob/ob mice [1] = assay: 14 once-daily injections of GIP analogues in ob/ob mice; format: in vivo, mouse; conditions: 14 days daily, insulin 50 U/kg
Protocol: (§1) Animals. Obese diabetic (ob/ob) mice derived from the colony maintained at Aston University, UK (Bailey C. J. et al., 1982, Int. J. Obes. 6:11-21) were used at 14-18 weeks of age. Animals were age-matched, divided into groups and housed individually in an air-conditioned room at 22±2° C. with a 12 hour light: 12 hour dark cycle (08:00-20:00 hr). Drinking water and a standard rodent maintenance diet (Trouw Nutrition, Cheshire, UK) were freely available. All animal experiments were carried out in accordance with the UK Animals (Scientific Procedures) Act 1986.
Methods. […] Intraperitoneal glucose tolerance (18 mmol/kg body wt) and insulin sensitivity (50 U/kg body wt) tests were performed at the end of the study period. Blood samples taken from the cut tip of the tail vein of conscious mice at the times indicated in the Figures were immediately centrifuged using a Beckman microcentrifuge (Beckman Instruments, UK) for 30 seconds at 13,000×g. The resulting plasma was then aliquoted into fresh Eppendorf tubes and stored at −20° C. prior to glucose and insulin determinations.

DPP-IV = DPP-IV (Homo sapiens, UniProt P27487); assay: Degradation of GIP and Glu3-substituted GIP analogs by DPP-IV (HPLC); format: in vitro ADME; conditions: for half-life at 2 μm: DPP-IV enzyme (5 mU) in buffer, pH 7.8, incubation with DPP-IV, unit not given (time points in hrs), read-out: Estimated Half-Life (converted); for Intact Peptide Remaining (%) 0 hrs. / remaining at 2 h, 2 μm / remaining at 4 h, 2 μm / remaining at 8 h, 2 μm: incubation with DPP-IV (5 mU), 37°C; for Intact Peptide Remaining (%) 0 hrs.: pH 7.8, 0 hrs; for remaining at 2 h, 2 μm / remaining at 4 h, 2 μm / remaining at 8 h, 2 μm: isolated DPP-IV enzyme (5 mU); for remaining at 2 h, 2 μm: pH 7.8, 2 hrs, read-out: Intact Peptide Remaining (%) 2 hrs.; for remaining at 4 h, 2 μm: pH 7.8, 4 hrs, read-out: Intact Peptide Remaining (%) 4 hrs.; for remaining at 8 h, 2 μm: pH 7.8, 8 hrs, read-out: Intact Peptide Remaining (%) 8 hrs.
Sequence of DPP-IV (P27487 whole entry, species assumed): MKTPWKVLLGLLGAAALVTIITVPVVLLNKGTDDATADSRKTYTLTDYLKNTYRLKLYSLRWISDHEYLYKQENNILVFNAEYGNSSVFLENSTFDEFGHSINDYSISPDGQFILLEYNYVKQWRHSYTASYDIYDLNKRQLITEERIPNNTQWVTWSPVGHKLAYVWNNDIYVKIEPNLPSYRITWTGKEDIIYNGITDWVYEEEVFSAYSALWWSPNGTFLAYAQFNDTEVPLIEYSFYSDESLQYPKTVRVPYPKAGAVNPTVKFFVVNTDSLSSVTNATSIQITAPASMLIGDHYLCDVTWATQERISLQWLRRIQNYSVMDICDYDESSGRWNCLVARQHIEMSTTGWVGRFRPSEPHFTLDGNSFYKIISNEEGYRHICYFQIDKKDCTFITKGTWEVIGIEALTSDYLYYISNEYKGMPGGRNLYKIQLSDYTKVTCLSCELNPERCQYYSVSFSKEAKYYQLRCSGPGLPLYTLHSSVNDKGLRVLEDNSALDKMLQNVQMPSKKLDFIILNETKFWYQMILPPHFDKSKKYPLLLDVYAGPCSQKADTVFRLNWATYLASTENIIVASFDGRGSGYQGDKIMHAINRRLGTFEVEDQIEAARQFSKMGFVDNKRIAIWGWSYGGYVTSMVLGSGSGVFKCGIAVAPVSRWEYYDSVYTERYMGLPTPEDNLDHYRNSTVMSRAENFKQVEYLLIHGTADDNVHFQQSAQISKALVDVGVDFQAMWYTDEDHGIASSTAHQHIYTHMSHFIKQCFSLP

human GIP-R = molecular target: T1, human GIP-R (Homo sapiens, UniProt P48546); assay: Cyclic AMP production in GIP-R transfected CHL cells; format: cell-based; conditions: for inhibition of GIP-stimulated cAMP production: in presence of GIP (10^-7 m)
T1 construct: expressed in transfected cells; host or cells: Chinese Hamster Lung (CHL) fibroblast cells, stably transfected
T1 sequence (P48546 22-466): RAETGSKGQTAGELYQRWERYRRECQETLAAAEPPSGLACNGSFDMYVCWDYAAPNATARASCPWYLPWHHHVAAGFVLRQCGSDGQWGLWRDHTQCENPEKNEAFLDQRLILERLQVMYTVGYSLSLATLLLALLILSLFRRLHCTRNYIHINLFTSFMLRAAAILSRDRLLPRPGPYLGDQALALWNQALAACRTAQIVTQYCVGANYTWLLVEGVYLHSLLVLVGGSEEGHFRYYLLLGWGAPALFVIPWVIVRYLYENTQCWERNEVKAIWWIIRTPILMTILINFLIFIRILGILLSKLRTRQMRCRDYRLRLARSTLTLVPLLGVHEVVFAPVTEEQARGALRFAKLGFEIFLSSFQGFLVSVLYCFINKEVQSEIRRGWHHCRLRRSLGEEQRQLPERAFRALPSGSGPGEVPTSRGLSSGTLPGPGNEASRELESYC
Protocol: Tissue Culture. […] (v/v) fetal bovine serum, 1% (v/v) antibiotics (100 U/ml penicillin, 0.1 mg/ml streptomycin) (all from Gibco, Paisley, Strathclyde, Scotland). BRIN-BD11 cells were cultured in RPMI-1640 tissue culture medium containing 10% (v/v) fetal bovine serum, 1% (v/v) antibiotics (100 U/ml penicillin, 0.1 mg/ml streptomycin) and 11.1 mm glucose. The origin and secretory characteristics of these cells have been described in detail previously (McClenaghan, N. H. et al., 1996, Diabetes 45:1132-1140). The cells were maintained in sterile tissue culture flasks (Corning Glass Works, Sunderland, UK) at 37° C. in an atmosphere of 5% CO2 and 95% air using a LEEC incubator (Laboratory Technical Engineering, Nottingham, UK).
Methods. […] The culture medium was removed and cells subsequently washed twice with 2 ml ice-cold HBS buffer (130 mm NaCl, 20 mm HEPES, 0.9 mm NaHPO4, 0.8 mm MgSO4, 5.4 mm KCl, 1.8 mm CaCl2, 5.6 mm glucose and 25 μm phenol red) (pH 7.4). […] The medium was subsequently removed and the cells lysed with […] of lysing solution (5% TCA, 3% SDS, 92% H2O, also containing 0.1 mm unlabelled cAMP and 0.1 mm unlabelled ATP) (Sigma, Poole, Dorset, UK). The plates were then left on a shaker at room temperature for 30 minutes and tritiated cAMP formation determined by column chromatography using Dowex and alumina ion exchange columns (BioRad Life Science Research, Alpha Analytical, Larne, UK) as previously described (Gault, V. A. et al 2002, Biochem. J. 367:913-920).

BRIN-BD11 cells = assay: Insulin secretion from BRIN-BD11 cells; format: cell-based; conditions: for Maximal insulin response (% GIP max) / Insulin response in presence of 10^-7 M GIP (% GIP max): BRIN-BD11 cells, 5.6 mm glucose; for Maximal insulin response (% GIP max): 20 min; for Insulin response in presence of 10^-7 M GIP (% GIP max): in presence of 10^-7 M native GIP
Protocol: Tissue Culture. Chinese Hamster Lung (CHL) fibroblast cells stably transfected with the human GIP-R were cultured in DMEM tissue culture medium containing 10%. (v/v) fetal bovine serum, 1% (v/v) antibiotics (100 U/ml penicillin, 0.1 mg/ml streptomycin) (all from Gibco, Paisley, Strathclyde, Scotland). BRIN-BD11 cells were cultured in RPMI-1640 tissue culture medium containing 10% (v/v) fetal bovine serum, 1% (v/v) antibiotics (100 U/ml penicillin, 0.1 mg/ml streptomycin) and 11.1 mm glucose. The origin and secretory characteristics of these cells have been described in detail previously (McClenaghan, N. H. et al., 1996, Diabetes 45:1132-1140). The cells were maintained in sterile tissue culture flasks (Corning Glass Works, Sunderland, UK) at 37° C. in an atmosphere of 5% CO2 and 95% air using a LEEC incubator (Laboratory Technical Engineering, Nottingham, UK).
Methods. Insulin release from BRIN-BD11 cells was determined by use of cell monolayers as described previously (Gault, V. A. et al. 2002, Biochem. J. 367:913-920). In brief, BRIN-BD11 cells were seeded into 24-well plates (Nunc, Roskilde, Denmark) at a density of 1.5×10^5 cells per well and allowed to attach overnight in RPMI-1640 culture medium at 37° C. Acute tests for insulin secretion were preceded by 40 minutes pre-incubation at 37° C. in 1.0 ml Krebs Ringer Bicarbonate Buffer (KRBB, 115 mm NaCl, 4.7 mm KCl, 1.28 mm CaCl2, 1.2 mM MgSO4, 1.2 mm KH2PO4, 25 mM HEPES and 10 mm NaHCO3; pH 7.4 with NaOH) supplemented with 0.1% (w/v) BSA and 1.1 mM glucose. […] After 20 minutes incubation, the buffer was removed and used for measurement of insulin by radioimmunoassay (Flatt, P. R. and Bailey, C. J., 1981, Diabetologia 5:573-577).

ob/ob mice [2] = assay: Acute antihyperglycaemic and insulin releasing activity with glucose and native GIP in ob/ob mice; format: in vivo, mouse; conditions: 25 nmol/kg i.p. with GIP and glucose 18 mmol/kg, vs native GIP
Protocol: as §1
Biochemical analysis. Plasma glucose was assayed by an automated glucose oxidase procedure ([…]) using a Beckman Glucose Analyzer II (Beckman Instruments, Galway, Ireland). Plasma insulin was assayed by radioimmunoassay.
Methods. […] All test solutions were administered in a final volume of 5 ml/kg body weight. Blood samples were collected from the cut tip of the tail vein of conscious mice into chilled fluoride/heparin coated glucose microcentrifuge tubes (Sarstedt, Numbrecht, Germany) immediately prior to injection and at 15, 30 and 60 minutes post injection. Blood samples were immediately centrifuged using a Beckmnan microcentrifuge (Beckman Instruments, High Wycombe, Buckinghamshire, UK) for 30 seconds at 13,000×g. Plasma glucose was assayed using a Beckman Glucose Analyzer n (Beckman Instruments, High Wycombe, Buckinghamshire, UK) (Stevens, J. F., 1971, Clin. Chim. Acta 32:199-201) and plasma insulin was determined by RIA (Flatt, P. R. and Bailey, C. J., 1981, Diabetologia 5:573-577). All animal studies were carried out in accordance with the UK Animals (Scientific Procedures) Act 1986.

Substance | hypoglycemic action of insulin (ob/ob mice [1]) | half-life at 2 μm (DPP-IV) [h] | Intact Peptide Remaining (%) 0 hrs. (DPP-IV) [%] | remaining at 2 h, 2 μm (DPP-IV) [%] | remaining at 4 h, 2 μm (DPP-IV) [%] | remaining at 8 h, 2 μm (DPP-IV) [%] | EC50 (human GIP-R) [nM] | cAMP response in presence of 10^-7 M GIP (% GIP max) (human GIP-R; in presence of 10^-7 M native GIP) | inhibition of GIP-stimulated cAMP production (human GIP-R) | Maximal insulin response (% GIP max) (BRIN-BD11 cells) | Insulin response in presence of 10^-7 M GIP (% GIP max) (BRIN-BD11 cells) | remaining activity at 0.1 µM (human GIP-R; CHL, read-out: cAMP response in presence of 10^-7 M GIP (% GIP max)) [%] | plasma glucose and insulin profiles when administered together with native GIP (ob/ob mice [2]) | effect on GIP-stimulated insulin secretion (BRIN-BD11 cells; in presence of GIP (10^-7 m))
YAPGTFISDYSIAMDK(Palmitoyl)IHQQDFVNWLLAQKGKKNDWKHNITQ [(Pro^3)LysPAL^16GIP] | significantly augmented | > 8 | 100 | 100 | 100 | 100 | 870 | 63 ± 5 | similarly inhibited | 48 ± 4 | 61 ± 3 | – | – | –
YAYGTFISDYSIAMDKIHQQDFVNWLLAQKGKKNDWKHNITQ [(Tyr^3)GIP] | – | 1.5 | 100 | 34.1 ± 4.1 | 6.3 ± 3.1 | 0 | 1.5 | – | did not significantly inhibit | 75 ± 4 | 93 ± 2 | 76 ± 4 | significantly inhibited the action of GIP | did not significantly affect
